Tested on: P-Y1068-EGFR
Assay: Western blot analysis of P-Y1068-EGFR in EGF-stimulated HCT15 cells treated with DGK inhibitor
Assay type: cell-based, human
Conditions: versus DMSO control, pre-incubated 30 min
Experimental: Cells were plated in 6 or 10 cm dishes and starved for 2 h at 37 C in PBS. After resting, cells were EGF-stimulated for different time 3, 10 or 30 min. Cells were lysed with ice-cold 2% NP40 supplemented with protease and phosphatase inhibitors [10 mM sodium fluoride, 2 mM sodium orthovanadate, 0.5 mM EDTA, 2 mM phenyl-methylsulfonyl fluoride, 1 mM sodium molybdate, aprotonin (10 mg/ml), leupeptin (10 mg/ml), pepstatin (1 mg/ml)]. After 30 min on ice, lysates were centrifuged and supernatant were mix with 2× sample buffer. Protein lysates were separated on acrylamide gel 10%, transferred on PVDF membrane and incubated with primary antibodies of interest. Inhibitors such as Rottlerin (20 μM) and DGK were pre-incubated for 30 min before stimulation. Western blots were visualized with enhanced chemo-luminescence and imaging on a Fuji LAS 4000 image station (GE Healthcare). The protein bands in Western blots were quantified with Multi Gauge software, and densitometry (pixel intensity) was determined within the linear range of the exposure. Amounts of the proteins of interest were typically presented as a ratio of the indicated loading control. Values were then normalized to an indicated sample and noted as a fold difference. Results represent at least three independent experiments.

O=c1c2ccccc2[nH]c(=S)n1CCN1CCC(=C(c2ccc(F)cc2)c2ccc(F)cc2)CC1 [R59949]
P-Y1068-EGFR levels: decreased levels

Source: patent US10676792B2, “Prognostic and diagnostic methods for colorectal cancer” (The Regents of the University of California, priority 2015, dated 2020)
